Columns and labels:
[1] = molecular target: T1, rat adrenergic α1B receptor (Rattus norvegicus, UniProt P15823); test: Adrenergic α1B radioligand binding assay; conditions: [3H]Prozosin specific binding, read-out: Percent Inhibition of ligand binding, Adrenergic (0.1 μM ligand conc.) α1B
T1 construct: rat adrenergic α1B receptor obtained from Wistar Rat liver; from tissue; host or cells: Wistar Rat liver
T1 sequence (P15823 1-515): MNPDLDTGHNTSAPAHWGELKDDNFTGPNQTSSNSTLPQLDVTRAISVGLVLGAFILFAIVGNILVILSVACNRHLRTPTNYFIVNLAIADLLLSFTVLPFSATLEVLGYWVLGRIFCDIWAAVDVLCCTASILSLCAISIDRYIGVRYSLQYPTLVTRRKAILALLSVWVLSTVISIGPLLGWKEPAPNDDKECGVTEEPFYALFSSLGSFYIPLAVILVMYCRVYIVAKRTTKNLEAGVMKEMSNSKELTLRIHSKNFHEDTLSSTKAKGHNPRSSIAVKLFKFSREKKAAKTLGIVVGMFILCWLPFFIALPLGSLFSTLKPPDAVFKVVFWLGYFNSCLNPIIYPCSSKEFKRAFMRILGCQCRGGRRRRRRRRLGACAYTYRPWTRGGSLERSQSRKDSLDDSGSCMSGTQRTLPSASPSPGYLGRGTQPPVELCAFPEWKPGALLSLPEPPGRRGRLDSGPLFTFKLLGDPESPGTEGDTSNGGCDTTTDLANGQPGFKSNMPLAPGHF
Description: To evaluate in radioligand binding assays the activity of compounds of the invention, rat adrenergic α1B receptor obtained from Wistar Rat liver [Garcia-S′ainz, J. A. et al., Biochem. Biophys. Res. Commun. (1992), 186:760; Michel, A. D. et al., Br. J. Pharmacol. (1989), 98:883] in a modified Tris-HCl buffer (50 mM Tris-HCl buffer, pH 7.4, 0.5 mM EDTA) was used. Compounds of the invention were incubated with 0.25 nM [^3H]Prozosin for 60 min. at 25° C. Non-specific binding was estimated in the presence of 10 μM phentolamine. Receptor proteins were filtered and washed, the filters were then counted to determine [^3H]Prozosin specifically bound. Compounds were screened at 1 μM or lower, using 1% DMSO as vehicle. Compounds of the invention were tested in this biochemical assay. Biochemical assay results for representative compounds were presented as the percent inhibition of specific binding in Table 3.

[2] = molecular target: T2, human recombinant histamine H2 receptor (Homo sapiens, UniProt P25021); test: Histamine H2 radioligand binding assay; conditions: [125I]Aminopotentidine specific binding, read-out: Percentage Inhibition, Histamine Binding (1 μM) H2
T2 construct: expressed in transfected cells; host or cells: Chinese hamster ovary (CHO) K1 cells
T2 sequence (P25021 whole entry): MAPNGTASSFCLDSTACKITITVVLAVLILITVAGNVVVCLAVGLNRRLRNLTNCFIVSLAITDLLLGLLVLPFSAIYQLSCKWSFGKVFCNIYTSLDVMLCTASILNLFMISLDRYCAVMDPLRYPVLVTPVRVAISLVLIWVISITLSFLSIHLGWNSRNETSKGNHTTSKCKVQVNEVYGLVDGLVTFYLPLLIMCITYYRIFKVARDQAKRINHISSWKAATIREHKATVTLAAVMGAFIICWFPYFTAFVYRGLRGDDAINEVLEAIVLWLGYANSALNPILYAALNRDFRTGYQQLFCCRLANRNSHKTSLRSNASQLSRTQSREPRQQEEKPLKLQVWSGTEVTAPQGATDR
Description: To evaluate in radioligand binding assays the activity of compounds of the invention, human recombinant histamine H2 receptor expressed in Chinese hamster ovary (CHO) K1 cells [Ruat, M., Proc. Natl. Acad. Sci. USA. (1990), 87(5):1658] in a 50 mM Phosphate buffer, pH 7.4 was used. Compounds of the invention were incubated with 0.1 nM [^125I]Aminopotentidine for 120 min. at 25° C. Non-specific binding was estimated in the presence of 3 μM Tiotidine. Receptor proteins were filtered and washed, the filters were then counted to determine [^125I]Aminopotentidine specifically bound. Compounds were screened at 1 μM or lower, using 1% DMSO as vehicle. Biochemical assay results are presented as the percent inhibition of specific binding in Table 2.

[3] = molecular target: T3, human recombinant adrenergic α2C receptor (Homo sapiens, UniProt P18825); test: Adrenergic α2C radioligand binding assay; conditions: [3H]MK-912 specific binding, read-out: Percent Inhibition of ligand binding, Adrenergic (0.1 μM ligand conc.) α2C
T3 construct: expressed in transfected cells; host or cells: insect Sf9 cells
T3 sequence (P18825 1-462): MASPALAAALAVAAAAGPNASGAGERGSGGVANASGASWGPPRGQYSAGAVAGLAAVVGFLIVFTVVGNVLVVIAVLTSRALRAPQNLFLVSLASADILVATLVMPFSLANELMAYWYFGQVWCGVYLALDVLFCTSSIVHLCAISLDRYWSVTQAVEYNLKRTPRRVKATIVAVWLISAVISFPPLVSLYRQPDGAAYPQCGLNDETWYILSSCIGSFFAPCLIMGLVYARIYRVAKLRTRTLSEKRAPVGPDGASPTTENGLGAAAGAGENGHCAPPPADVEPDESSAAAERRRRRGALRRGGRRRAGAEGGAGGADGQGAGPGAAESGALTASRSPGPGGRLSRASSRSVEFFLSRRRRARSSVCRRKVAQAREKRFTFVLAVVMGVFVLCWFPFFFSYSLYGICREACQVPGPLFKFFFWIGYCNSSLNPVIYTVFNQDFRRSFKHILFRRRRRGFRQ
Description: To evaluate in radioligand binding assays the activity of compounds of the invention, human recombinant adrenergic α2C receptor expressed in insect Sf9 cells [Uhlen, S et al., J. Pharmacol. Exp. Ther. (1994), 271:1558] in a modified Tris-HCl buffer (50 mM Tris-HCl, pH 7.4, 12.5 mM MgCl2, 2 mM EDTA) was used. Compounds of the invention were incubated with 1 nM [^3H]MK-912 for 60 min. at 25° C. Non-specific binding was estimated in the presence of 10 μM WB-4101. Receptor proteins were filtered and washed, the filters were then counted to determine [^3H]MK-912 specifically bound. Compounds were screened at 1 μM or lower, using 1% DMSO as vehicle. Compounds of the invention were tested in this biochemical assay. Biochemical assay results for representative compounds were presented as the percent inhibition of specific binding in Table 3.

[4] = molecular target: human recombinant serotonin (5-Hydroxytryptamine) 5-HT7 receptor (Homo sapiens, UniProt P34969); test: Serotonin 5-HT7 radioligand binding assay; conditions: [3H]LSD specific binding, read-out: Percent Inhibition of ligand binding, Serotonin (1 μM ligand concentration) 5-HT7
Chain of human recombinant serotonin (5-Hydroxytryptamine) 5-HT7 receptor (P34969 whole entry): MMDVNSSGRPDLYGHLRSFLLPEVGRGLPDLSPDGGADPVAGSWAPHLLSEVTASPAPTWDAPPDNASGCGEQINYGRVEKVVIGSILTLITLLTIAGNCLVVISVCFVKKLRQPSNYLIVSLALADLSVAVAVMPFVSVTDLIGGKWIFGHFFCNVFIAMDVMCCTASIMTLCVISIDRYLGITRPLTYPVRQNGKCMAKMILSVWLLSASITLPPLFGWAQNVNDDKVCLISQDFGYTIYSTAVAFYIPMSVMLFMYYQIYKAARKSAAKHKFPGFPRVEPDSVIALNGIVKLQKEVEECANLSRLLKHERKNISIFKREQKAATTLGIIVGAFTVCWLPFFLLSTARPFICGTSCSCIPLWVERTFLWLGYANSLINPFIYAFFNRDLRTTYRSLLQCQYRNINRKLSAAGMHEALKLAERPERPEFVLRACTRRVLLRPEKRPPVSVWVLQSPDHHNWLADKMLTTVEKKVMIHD
Description: To evaluate in radioligand binding assays the activity of compounds of the invention, human recombinant serotonin (5-Hydroxytryptamine) 5-HT7 receptor expressed in Chinese hamster ovary (CHO) cells [Roth, B. L. et al., J. Pharmacol. Exp. Ther. (1994), 268:1403; Shen, Y. et al., J. Biol. Chem. (1993), 268:18200] in a modified Tris-HCl buffer (50 mM Tris-HCl, pH 7.4, 10 mM MgCl2, 0.5 mM EDTA) was used. Compounds of invention were incubated with 5.5 nM [^3H] Lysergic acid diethylamide (LSD) for 2 h at 25° C. Non-specific binding was estimated in the presence of 10 μM Serotonin (5-HT). Receptor proteins were filtered and washed, the filters were then counted to determine [^3H]LSD specifically bound. Compounds were screened at 1 μM or lower, using 1% DMSO as vehicle. Biochemical assay results are presented as the percent inhibition of specific binding in Table 4.

Structure (SMILES) | inhibition at 0.1 µM [1] [%] | inhibition at 1 µM [2] [%] | inhibition at 0.1 µM [3] [%] | inhibition at 1 µM [4] [%]
Cc1ccc2c(c1)c1c(n2C(=O)Cc2ccc(Cl)cc2)CN2CCC1C2 (stereo not shown) [Compound 36] | 4 | 20 | 24 | 75
C/C(=C\n1c2c(c3cc(C)ccc31)C1CCN(C2)C1)c1ccccc1F (stereo not shown) [Compound 38] | 29 | 7 | 13 | 95
C/C(=C\n1c2c(c3cc(C)ccc31)C1CCN(C2)C1)c1ccncc1 (stereo not shown) [Compound 44] | 4 | -3 | 7 | 80
COc1ccc(/C(C)=C/n2c3c(c4cc(C)ccc42)C2CCN(C3)C2)cc1 (stereo not shown) [Compound 45] | 20 | 21 | 3 | 93

— US9271971B2, “Pyrido[3,4-B]indoles and methods of use” (Medivation Technologies, Inc., priority 2009, dated 2016)
